Test [1] concerns isolated heart. Kind of test: Experiment 2-1 Activity on isolated heart. More on the design: species or system Japanese white rabbit. Particulars: Oryctolagus cuniculus, 3 μg/heart; for activation at 3 µg/heart: read-out: Increase of coronary perfusion; for inhibition at 3 µg/heart, 3 µg/heart: read-out: Inhibitory rate of systole; for inhibition at 3 µg/heart: read-out: Reducing rate of heart pulse. Here is the method:
Japanese white rabbit (weighing 2.2-2.5 kg) was anesthetized by introvenous injection of nembutal (20 mg/kg) and then sacrificed by bleeding from common carotid artery. […] After stabilizing the heart preparation for 90 minutes, the test compound was administered. There were measured the perfusion volume with a drop-counting meter (ET-600G type, manufactured by Nippon Koden K.K.) and the heart pulse and the contractility via a force-displacement transducer (FD pick up, SB-IT type, manufactured by Nippon Koden K.K.) (for measuring heart pulse, an instant pulse meter (AT-601G type, minufactured by Nippon Koden K.K.) being further used).

The subject of a further test is isolated aorta. Kind of test: Experiment 3 Relaxing activity on the isolated aorta (30 mM KCl contracted). Conditions: for EC50: Oryctolagus cuniculus, 30 mM KCl contraction, maximum relaxation by papaverine = 100%, read-out: EC50 (concentration for 50% relaxation); for relaxing / vasodilating activity on isolated aorta (in words): Table 8, comparison with nifedipine and nicardipine hydrochloride, etc. where stated. Also noted: species or system Japanese white rabbit.

The test system of test [2] is Spontaneously hypertensive male rats. Kind of test: Experiment 1-1 Hypotensive activity (oral, conscious spontaneously hypertensive rats). The class given is in vivo, rat. Particulars: 10 mg/kg oral.
Method: Spontaneously hypertensive male rats (13-15 week age, one group: 3 rats) were used. […] The rats were fixed in a Howlman cage without fasting, and the femoral arterial pressure was measured by a direct method without anesthesia with a cannula which was previously inserted into the femoral artery of the animal, via a pressure transducer (MPU-0.5, manufactured by Nippon Koden K.K.). The test compounds were orally administered in the form of a suspension in 0.5% methyl cellulose solution in a dose of 10 mg/kg (in some compounds, 3 mg/kg). In the control group, only 0.5% methyl cellulose solution was administered likewise. The blood pressure was measured for 5 hours after the administration of test compounds.
Test [3] concerns isolated heart. Kind of test: Experiment 2-2 Activity onto the isolated heart (with duration). Also noted: species or system Japanese white rabbit. Particulars: for Coronary perfusion Duration: time until perfusion volume returned to initial level; for activation at 3 µg/heart / inhibition at 3 µg/heart / activation at 1 µg/heart / inhibition at 1 µg/heart: Oryctolagus cuniculus; for activation at 3 µg/heart / activation at 1 µg/heart: read-out: Coronary perfusion Increase. Here is the method: Japanese white rabbit (weighing 2.2-2.5 kg) was anesthetized by introvenous injection of nembutal (20 mg/kg) and then sacrificed by bleeding from common carotid artery. […] There were measured the perfusion volume with a drop-counting meter (ET-600G type, manufactured by Nippon Koden K.K.) and the heart pulse and the contractility via a force-displacement transducer (FD pick up, SB-IT type, manufactured by Nippon Koden K.K.) (for measuring heart pulse, an instant pulse meter (AT-601G type, minufactured by Nippon Koden K.K.) being further used).
The test compounds were dissolved in ethanol, and the solution was diluted in 100-fold with purified water, and the diluted solution was administered in an amount of 0.1 ml/heart (i.e. 3 μg/heart).
The activity was measured in the same manner as described in Experiment 2-1 except that in some test compounds, the dose was in 1 μg/heart. Besides, the duration of the activity was evaluated by counting the time until the coronary perfusion volume became to the initial level before the administration of the test compound.

Setting [4] is: 3 μg/heart, read-out: Inhibitory rate of systole.
Setting [5] is: 3 μg/heart, read-out: Reducing rate of heart pulse.
The mark [6] stands for this setting: 1 μg/heart, read-out: Inhibitory rate of systole.
Setting [7] is: 1 μg/heart, read-out: Reducing rate of heart pulse.

Like-named read-outs stand apart in the source and are kept apart here.

Method for isolated aorta: Japanese white rabbit (weighing 2.3-2.7 kg) was sacrificed by bleeding from common carotid artery. Immediately, the aorta was isolated and cut into a sprial strip. The strip preparation was vertically suspended under a resting tension of 2.0 g in a tissue bath containing 20 ml of modified Ringer solution while bubbling with a mixture of 95% O2 +5% CO2 by connecting one end of the strip to a lever of the above-mentioned FD pick up. The aortic strip was contracted with 30 mM KCl. When the contraction became constant, the test compound was accumulatively administered, and the relaxing effect was measured. After the final treatment, 10^-4T M papaverine was administered and the maximum relaxation obtained thereby was taken as 100%. In comparison with the maximum relaxation obtained by papaverine, the rate of relaxation by the test compounds was evaluated, and the concentration of the test compounds for obtaining 50% relaxation (EC50) was calculated.
The test compound was dissolved in ethanol, and the solution was diluted in 100 to 1×10^4 folds with a nutrient solution, and the diluted solution was administered.

On to `CCNC(=O)C1=C(C)NC(C)=C(C(=O)OC)C1c1ccccc1[N+](=O)[O-]` (centres unmarked) [D, reference compound], for which, in the test on isolated heart [1], the activation at 3 µg/heart stood at 20%; the inhibition at 3 µg/heart, 3 µg/heart is 15%; the inhibition at 3 µg/heart stood at 5%.
In the case of `CCOC(=O)C1=C(C)NC(C)=C(C(N)=O)C1c1ccccc1[N+](=O)[O-]` (centres unmarked) [Example 9], the EC50 in the test with isolated aorta worked out at 670 nM.
The same measure, in the same setting: to `CCCOC(=O)C1=C(C)NC(C)=C(C(N)=O)C1c1ccccc1[N+](=O)[O-]` (centres unmarked) [Example 10] belongs 400 nM; to `CC1=C(C(N)=O)C(c2ccccc2[N+](=O)[O-])C(C(=O)OC(C)C)=C(C)N1` (centres unmarked) [Example 11], 320 nM.
Consider `CCCCCOC(=O)C1=C(C)NC(C)=C(C(N)=O)C1c1ccccc1[N+](=O)[O-]` (centres unmarked) [Example 16], for which, in the test on isolated aorta, the EC50 worked out at 610 nM.
For `CC1=C(C(N)=O)C(c2ccccc2[N+](=O)[O-])C(C(=O)OC(C)C(C)C)=C(C)N1` (centres unmarked) [Example 18], in the test with isolated aorta, the EC50 stood at 710 nM.
Regarding `CCNC(=O)C1=C(C)NC(C)=C(C(=O)OCCC(C)C)C1c1ccccc1[N+](=O)[O-]` (centres unmarked) [Example 33], in the test with isolated aorta, the EC50 stood at 31 nM and the “relaxing / vasodilating activity on isolated aorta (in words)” value is “the same or more potent activity”.
In the case of `CCCCCOC(=O)C1=C(C)NC(C)=C(C(=O)NCCC)C1c1ccccc1[N+](=O)[O-]` (centres unmarked) [Example 39], in the test on isolated aorta, the EC50 worked out at 40 nM and the “relaxing / vasodilating activity on isolated aorta (in words)” value was “the same or more potent activity”.
For the compound `CCCNC(=O)C1=C(C)NC(C)=C(C(=O)OCCC(C)C)C1c1ccccc1[N+](=O)[O-]` (centres unmarked) [Example 40], in the test with isolated heart [1], the activation at 3 µg/heart was determined as 25%; the inhibition at 3 µg/heart, 3 µg/heart was 14%; the inhibition at 3 µg/heart is 1%.
In the case of `CCCCCCOC(=O)C1=C(C)NC(C)=C(C(=O)NCCC)C1c1ccccc1[N+](=O)[O-]` (centres unmarked) [Example 41], the EC50 in the test on isolated aorta is 130 nM.
On the same count and under the same terms, the same measure for `CCCCCCCOC(=O)C1=C(C)NC(C)=C(C(=O)NCCC)C1c1ccccc1[N+](=O)[O-]` (centres unmarked) [Example 42]: 380 nM.
Regarding `CC1=C(C(=O)NC(C)C)C(c2cccc([N+](=O)[O-])c2)C(C(=O)OC(C)C)=C(C)N1` (centres unmarked) [Example 63], in test [2], the Recovering time was determined as 1.5 h, the “Time for recovering 1/2 of max. hypotension” value amounted to 1.0 h and the “Time until reaching to max. hypotension” value was determined as 15 min. In test [2] (mean blood pressure), this compound came in with a Maximum hypotension of 7 mmHg.
Consider `COC(=O)C1=C(C)NC(C)=C(C(=O)NC2CC2)C1c1ccccc1[N+](=O)[O-]` (centres unmarked) [Example 80, methyl 2,6-dimethyl-3-cyclopropylaminocarbonyl-4-(o-nitrophenyl)-1,4-dihydropyridine-5-carboxylate], for which, in the test with isolated heart [3] (3 μg/heart), the “Coronary perfusion Duration” value was below 10 min and the activation at 3 µg/heart stood at 25%. For the same compound, in the test on isolated heart [3] (setting [4]), the inhibition at 3 µg/heart worked out at 15%. Further, in the test with isolated heart [3] (setting [5]), the inhibition at 3 µg/heart is 5%.
Take `CCCCCCCOC(=O)C1=C(C)NC(C)=C(C(=O)NC2CC2)C1c1ccccc1[N+](=O)[O-]` (centres unmarked) [Example 81, n-heptyl 2,6-dimethyl-3-cyclopropylaminocarbonyl-4-(o-nitrophenyl)-1,4-dihydropyridine-5-carboxylate]: in the test on isolated heart [3] (3 μg/heart), the “Coronary perfusion Duration” value was 10 to 15 min and the activation at 3 µg/heart worked out at 15%. Moreover, the inhibition at 3 µg/heart in the test with isolated heart [3] (setting [4]) came out at 15%. Moreover, the inhibition at 3 µg/heart in the test with isolated heart [3] (setting [5]) amounted to 0%.
With `COC(=O)C1=C(C)NC(C)=C(C(=O)NC2CCCC2)C1c1ccccc1[N+](=O)[O-]` (centres unmarked) [Example 84, methyl 2,6-dimethyl-3-cyclopentylaminocarbonyl-4-(o-nitrophenyl)-1,4-dihydropyridine-5-carboxylate], in the test with isolated heart [3] (1 μg/heart), the “Coronary perfusion Duration” value is 20 to 30 min and the activation at 1 µg/heart stood at 30%. The inhibition at 1 µg/heart in the test on isolated heart [3] (setting [6]) turned out to be 15%. The inhibition at 1 µg/heart in the test on isolated heart [3] (setting [7]) is 20%.
In the case of `CCCCCCCCOC(=O)C1=C(C)NC(C)=C(C(=O)NC2CCCC2)C1c1ccccc1[N+](=O)[O-]` (centres unmarked) [Example 86, n-octyl 2,6-dimethyl-3-cyclopentylaminocarbonyl-4-(o-nitrophenyl)-1,4-dihydropyridine-5-carboxylate], in the test with isolated heart [3] (1 μg/heart), the “Coronary perfusion Duration” value came to 60 min and the activation at 1 µg/heart is 50%. The inhibition at 1 µg/heart with isolated heart [3] (setting [6]) was found to be 15%. For the same compound, the inhibition at 1 µg/heart with isolated heart [3] (setting [7]) was 20%.
In the case of `CCCCCCCCCOC(=O)C1=C(C)NC(C)=C(C(=O)NC2CCCC2)C1c1ccccc1[N+](=O)[O-]` (centres unmarked) [Example 87, n-nonyl 2,6-dimethyl-3-cyclopentylaminocarbonyl-4-(o-nitrophenyl)-1,4-dihydropyridine-5-carboxylate], in the test on isolated heart [3] (1 μg/heart), the “Coronary perfusion Duration” value was 60 min and the activation at 1 µg/heart worked out at 40%. For the same compound, in the test on isolated heart [3] (setting [6]), the inhibition at 1 µg/heart turned out to be 15%. Besides, in the test on isolated heart [3] (setting [7]), the inhibition at 1 µg/heart was 5%.
In the case of `CCOC(=O)C1=C(C)NC(C)=C(C(=O)NC2CC2)C1c1ccccc1[N+](=O)[O-]` (centres unmarked) [Example 88], in the test with isolated heart [3] (3 μg/heart), the “Coronary perfusion Duration” value was below 10 min and the activation at 3 µg/heart came out at 35%. In addition, the inhibition at 3 µg/heart in the test with isolated heart [3] (setting [4]) was 30%. Also, the inhibition at 3 µg/heart in the test on isolated heart [3] (setting [5]) was 30%.
For `CCCOC(=O)C1=C(C)NC(C)=C(C(=O)NC2CC2)C1c1ccccc1[N+](=O)[O-]` (centres unmarked) [Example 89], in the test on isolated heart [3] (3 μg/heart), the “Coronary perfusion Duration” value was below 10 min. Besides, in the test with isolated heart [3] (3 μg/heart), the activation at 3 µg/heart is 30%. The inhibition at 3 µg/heart in the test on isolated heart [3] (setting [4]) is 35%; in the test with isolated heart [3] (setting [5]) it was 30%.
With `CC1=C(C(=O)NC2CC2)C(c2ccccc2[N+](=O)[O-])C(C(=O)OC(C)C)=C(C)N1` (centres unmarked) [Example 90], the “Coronary perfusion Duration” value in the test on isolated heart [3] (3 μg/heart) was below 10 min. Further, the activation at 3 µg/heart in the test on isolated heart [3] (3 μg/heart) stood at 15%. For the same compound, the values for the inhibition at 3 µg/heart in the test with isolated heart [3] (setting [4]) and in the test with isolated heart [3] (setting [5]) were 10% and 5%, respectively.
With `CCCCOC(=O)C1=C(C)NC(C)=C(C(=O)NC2CC2)C1c1ccccc1[N+](=O)[O-]` (centres unmarked) [Example 91], the “Coronary perfusion Duration” value in the test with isolated heart [3] (3 μg/heart) is below 10 min. Besides, the activation at 3 µg/heart in the test on isolated heart [3] (3 μg/heart) was 20%. Further, the values for the inhibition at 3 µg/heart in the test with isolated heart [3] (setting [4]) and with isolated heart [3] (setting [5]) were 35% and 10%, respectively.
For `CC1=C(C(=O)NC2CC2)C(c2ccccc2[N+](=O)[O-])C(C(=O)OCC(C)C)=C(C)N1` (centres unmarked) [Example 92], in the test on isolated heart [3] (3 μg/heart), the “Coronary perfusion Duration” value is below 10 min and the activation at 3 µg/heart was found to be 10%. In addition, the inhibition at 3 µg/heart in the test on isolated heart [3] (setting [4]) is 10%. Also, the inhibition at 3 µg/heart in the test with isolated heart [3] (setting [5]) amounted to 5%.
`CCCCCOC(=O)C1=C(C)NC(C)=C(C(=O)NC2CC2)C1c1ccccc1[N+](=O)[O-]` (centres unmarked) [Example 93]: in the test with isolated heart [3] (3 μg/heart), the “Coronary perfusion Duration” value amounted to 20 min and the activation at 3 µg/heart amounted to 20%. Moreover, in the test on isolated heart [3] (setting [4]), the inhibition at 3 µg/heart stood at 20%. The inhibition at 3 µg/heart in the test on isolated heart [3] (setting [5]) is 15%.
Consider `CC1=C(C(=O)NC2CC2)C(c2ccccc2[N+](=O)[O-])C(C(=O)OCCC(C)C)=C(C)N1` (centres unmarked) [Example 94], for which the “Coronary perfusion Duration” value in the test with isolated heart [3] (3 μg/heart) was below 10 min. In addition, the activation at 3 µg/heart in the test on isolated heart [3] (3 μg/heart) worked out at 15%. Moreover, the inhibition at 3 µg/heart with isolated heart [3] (setting [4]) amounted to 10%; in the test with isolated heart [3] (setting [5]), 0%.
As for `CCCCCCOC(=O)C1=C(C)NC(C)=C(C(=O)NC2CC2)C1c1ccccc1[N+](=O)[O-]` (centres unmarked) [Example 95], in the test with isolated heart [3] (3 μg/heart), the “Coronary perfusion Duration” value lay within 10 to 15 min and the activation at 3 µg/heart is 20%. Besides, the inhibition at 3 µg/heart in the test with isolated heart [3] (setting [4]) worked out at 15%. Also, the inhibition at 3 µg/heart in the test on isolated heart [3] (setting [5]) was 10%.
For `CC1=C(C(=O)NC2CC2)C(c2ccccc2[N+](=O)[O-])C(C(=O)OCCCC(C)C)=C(C)N1` (centres unmarked) [Example 96], in the test with isolated heart [3] (3 μg/heart), the “Coronary perfusion Duration” value was below 10 min. For the same compound, the activation at 3 µg/heart with isolated heart [3] (3 μg/heart) is 20%. In addition, the inhibition at 3 µg/heart came out at 10% in the test with isolated heart [3] (setting [4]) and 0% in the test with isolated heart [3] (setting [5]).

The record behind these values is patent publication US4874773A, “3-Aminocarbonyl-1,4-dihydropyridine-5-carboxylic acid compounds, and pharmaceutical composition containing the same” (priority 1985, dated 1989).
